The results in this text go back to ChEMBL document CHEMBL1129070, “(-)-Arctigenin as a lead structure for inhibitors of human immunodeficiency virus type-1 integrase” (J Med Chem, 1996).

Test [1] deals with Human immunodeficiency virus type 1 integrase (Human immunodeficiency virus 1) (UniProt Q7ZJM1). Nature of the test: Inhibitory activity against 3'-processing by HIV-1 Integrase at 100 uM.
The target is the same in test [2]. Nature of the test: Inhibitory activity against strand transfer by HIV-1 Integrase at 100 uM.
Test [3] addresses T1, Human immunodeficiency virus type 1 integrase (Human immunodeficiency virus 1, UniProt Q7ZJM1). Nature of the test: Inhibitory concentration against 3'-processing by HIV -1 Integrase.
For test [4], the target named is T1, Human immunodeficiency virus type 1 integrase. In words: Inhibitory concentration against Strand transfer by HIV -1 Integrase.

Chain of Human immunodeficiency virus type 1 integrase (Human immunodeficiency virus 1) (Q7ZJM1 as listed by the source): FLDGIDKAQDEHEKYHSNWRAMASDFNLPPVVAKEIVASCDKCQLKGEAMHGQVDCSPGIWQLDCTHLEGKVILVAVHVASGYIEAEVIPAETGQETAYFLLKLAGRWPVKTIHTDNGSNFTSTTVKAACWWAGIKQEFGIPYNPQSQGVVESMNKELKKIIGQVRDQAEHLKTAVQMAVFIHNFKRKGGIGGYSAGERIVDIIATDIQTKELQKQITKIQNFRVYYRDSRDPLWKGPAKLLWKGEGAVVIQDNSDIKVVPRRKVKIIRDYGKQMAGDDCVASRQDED
T1 sequence (Q7ZJM1 whole entry): as the sequence (Q7ZJM1 as listed by the source) above

For `COc1ccc(C[C@H]2COC(=O)[C@@H]2Cc2ccc(O)c(O)c2)cc1OC`, the inhibition in test [1] stood at 37%; in test [2], 52%.
On the same counts, the results for `COc1cc(C[C@H]2C(=O)CC[C@@H]2Cc2ccc(OC)c(OC)c2)ccc1O` are under 5% and under 5%.
Taken in the same sequence, the figures for `COc1cc([C@@H]2c3cc4c(c(O)c3C[C@H]3COC(=O)[C@@H]32)OCO4)cc(OC)c1O` were under 5% and under 5%.
On the same counts, the results for `COc1ccc(C[C@H]2COC(=O)[C@@H]2Cc2cccc(O)c2)cc1OC` are under 5% and under 5%.
Regarding `COc1ccc(C[C@@H](CO)[C@@H](Cc2ccc(O)c(O)c2)C(=O)NCc2ccccc2)cc1OC`, the inhibition in test [1] and in test [2] was under 5% each time.
Take `COc1cc(C[C@@H](CO)[C@H](CO)Cc2ccc(OC)c(OC)c2)ccc1O`: the inhibition in test [1] and in test [2] was under 5% each time.
Take `COc1cc([C@@H]2c3cc4c(cc3[C@H](O)[C@H]3COC(=O)[C@H]23)OCO4)cc(OC)c1O`: the inhibition in test [1] and in test [2] was under 5% throughout.
For the compound `O=C1OC[C@H](Cc2ccc3c(c2)OCO3)[C@H]1Cc1ccccc1`, the inhibition in test [1] and in test [2] was under 5% in each case.
For the compound `COc1cc(C[C@H]2COC(=O)[C@@H]2Cc2ccc(O)c(OC)c2)ccc1O`, the inhibition in test [1] and in test [2] was under 5% in each case.
With `COc1cc(C[C@@H](CO)[C@H](CO)Cc2ccc(O)c(OC)c2)ccc1O`, the inhibition in test [1] and in test [2] was under 5% throughout.
For `COc1cc(C[C@H]2C(=O)OC[C@@H]2Cc2ccc(O)c(O)c2)ccc1O`, the inhibition is under 5% in test [1] and 41% in test [2].
`COc1ccc(C[C@H]2COC(=O)[C@@H]2Cc2cc(O)c(O)c(O)c2)cc1OC`: the inhibition in test [1] and in test [2] was under 5% each time.
For `O=C1OC[C@H](Cc2ccc3c(c2)OCO3)[C@H]1Cc1ccc(O)cc1`, the inhibition in test [1] and in test [2] was under 5% in each case.
As for `COc1ccc(C[C@@H](CO)[C@H](CO)Cc2ccc(O)c(O)c2)cc1OC`, the inhibition in test [1] and in test [2] was under 5% in each case.
In the case of `COc1cc(C[C@H]2C(=O)OC[C@@H]2Cc2ccc(OC)c(OC)c2)ccc1O`, the inhibition in test [1] and in test [2] was under 5% in each case.
For `COc1ccc(C[C@H]2COC(=O)[C@@H]2Cc2ccccc2)cc1OC`, the inhibition in test [1] and in test [2] was under 5% throughout.
For the compound `O=C1OC[C@H](Cc2ccc3c(c2)OCO3)[C@H]1Cc1cccc(O)c1`, the inhibition in test [1] and in test [2] was under 5% each time.
For `O=C1OC[C@H](Cc2ccc(O)c(O)c2)[C@H]1Cc1ccc(O)c(O)c1`, the inhibition in test [1] came out at 92%; in test [2], 100%. The IC50 came to 21.4 µM in test [3] and 5.4 µM in test [4].
As to `COc1cc([C@@H]2c3cc4c(c(O)c3C[C@H]3COC(=O)[C@H]32)OCO4)cc(OC)c1OC`, the inhibition in test [1] and in test [2] was under 5% throughout.
`COc1cc(C[C@H]2COC[C@@H]2Cc2ccc(OC)c(OC)c2)ccc1O`: the inhibition in test [1] and in test [2] was under 5% throughout.
For `COc1ccc(C[C@H]2COC(=O)[C@@H]2Cc2ccc(O)cc2)cc1OC`, the inhibition in test [1] and in test [2] was under 5% throughout.
Consider `COc1cc([C@@H]2c3cc4c(c(O)c3C[C@H]3COC(=O)[C@@H]32)OCO4)cc(OC)c1OC`, for which the inhibition in test [1] and in test [2] was under 5% each time.
In the case of `COc1cc([C@@H]2c3cc4c(c(O)c3C[C@H]3COC(=O)[C@H]32)OCO4)cc(OC)c1O`, the inhibition in test [1] and in test [2] was under 5% each time.
`COc1ccc(C[C@H]2COC[C@@H]2Cc2ccc(O)c(O)c2)cc1OC`: the inhibition in test [1] and in test [2] was under 5% throughout.
Consider `COc1cc(C[C@H]2COC[C@@H]2Cc2ccc(O)c(OC)c2)ccc1O`, for which the inhibition in test [1] and in test [2] was under 5% in each case.
Turning to `COc1ccc(C[C@H]2CCC(=O)[C@@H]2Cc2ccc(O)c(O)c2)cc1OC`, the inhibition in test [1] and in test [2] was under 5% in each case.
Turning to `COc1cc([C@@H]2c3cc4c(cc3C(O)[C@H]3COC(=O)[C@H]23)OCO4)cc(O)c1O` (stereo not given in full), the inhibition in test [1] and in test [2] was under 5% throughout.
Turning to `COc1cc([C@@H]2c3cc4c(cc3[C@H](O)[C@H]3COC(=O)[C@@H]23)OCO4)cc(OC)c1O`, the inhibition in test [1] and in test [2] was under 5% throughout.
On to `COc1cc(C[C@@H](C(=O)NCc2ccccc2)[C@H](CO)Cc2ccc(OC)c(OC)c2)ccc1O`, for which the inhibition in test [1] and in test [2] was under 5% each time.

As usually defined, the inhibition is how much of the control response was suppressed. The low end stands for a weak effect, the high end for a strong effect. One may read the IC50 as the concentration needed to halve the response being measured. Lower therefore signals higher potency.
